In brackets after ≈: the same amount, converted by molar mass. Where two headings read alike, the source gives them in different places. Each block holds one compound with its values, some of them ahead of it.
Experiments:
[1] = tested on: Aggrecanase-mediated aggrecan cleavage in human OA cartilage explants; assay: Human osteoarthritic cartilage explant efficacy study (BC3 western analysis); type: cell-based; details: for EC50: 144 h, read-out: EC50 (inhibition of aggrecanase generated aggrecan fragments)
Excerpt: Human OA Cartilage Explant Culture: Discarded tissues from consented knee replacement patients were obtained from New England Baptist Hospital (Brookline, Mass.) in sterile phosphate buffered saline (PBS) after about 2-4 hrs post surgery. Cartilage slices were harvested from the knee specimens and washed several times in PBS. These cartilage slices were cut into appropriate pieces (6-8 mm) and rinsed in PBS and then in media and further cultured for additional days as cartilage explants. The medium consisted of Dulbecco's Modified Eagle's medium (DMEM, JRH Biosciences, Lenexa, Kans.), 50 μg/ml ascorbic acid (Wako, Osaka, Japan), 10 mM HEPES, pH 7.0 (Mediatech, Herndon, Va.), 2 mM L-glutamine (Mediatech), 100 U/ml antibiotic-antimycotic solution (Mediatech).
Test compounds: The test compounds are described in Examples 8OO, 8NNNNNNN, and 8WWWWWWW. Stock solutions of the compounds were prepared at 1 mg/ml in DMSO, aliquoted and stored at −20° C. Working solutions of the compounds were made in DMSO and added to the culture for efficacy studies.
Efficacy study: Cartilage explants were cultured for 2-3 days in DMEM medium in a 37° C. and 5% CO2 environment to equilibrate the tissue. Explants were weighed (˜250 mg) and placed in wells of a 24-well culture dish in 1 ml of medium and 3 replicates per treatment group. For the efficacy study, cartilage explants were cultured for 6 days in the presence or absence of various concentrations of the test compound. The media was replaced on day 3 and the experiment was terminated on day 6. Total aggrecan content of conditioned media was measured by a colorimetric assay with DMMB (Farndale, R W et al., Biochim Biophys Acta. 1986, 883, 173-177).
Western analysis: Aggrecan fragments in conditioned medium were analyzed by western analysis using neoepitope antibody, BC-3 designed to recognize the Aggrecanase-generated N-terminal interglobular neoepitope ^374ARGS. Equal cartilage weight equivalent conditioned media from each replicate well per treatment group was pooled and digested with Chondroitinase ABC (Sigma, St Louis, Mo.), Keratinase I (Seikagaku America, Falmouth, Mass.) and Keratinase II (Seikagaku America, Falmouth, Mass.) for 2 h at 37° C. Samples were concentrated by YM-10 centrifugal filter device (Millipore Corp., Bedford, Mass.), lyophilized and reconstituted with equal volume of water. Samples were separated under reducing conditions on 4-12% gradient Tris-glycine gels (Invitrogen, Carlsbad, Calif.). Proteins from the gels were transferred to nitrocellulose membranes. Immunoblots were probed using Mab BC-3 (Abcam, Cambridge, Mass.). Incubation with primary and alkaline-phosphatase-conjugated secondary goat anti-mouse IgG (Promega Corp., Madison, Wis.) was performed overnight at 4° C. and at room temperature for 1 h, respectively. The immunoblots were incubated with NBT/BCIP substrate (Promega Corp., Madison, Wis.) at room temperature to achieve optimum color development. The aggrecan fragments containing the ARGS neoepitope were quantitated by densitometry analysis and the percentage inhibition of aggrecan degradation by test compounds was determined.

recombinant human MMP-2 = molecular target: T1, recombinant human MMP-2 (Homo sapiens, UniProt P08253); assay: In vitro fluorescence assay of MMP-2 activity
T1 sequence (P08253 110-660): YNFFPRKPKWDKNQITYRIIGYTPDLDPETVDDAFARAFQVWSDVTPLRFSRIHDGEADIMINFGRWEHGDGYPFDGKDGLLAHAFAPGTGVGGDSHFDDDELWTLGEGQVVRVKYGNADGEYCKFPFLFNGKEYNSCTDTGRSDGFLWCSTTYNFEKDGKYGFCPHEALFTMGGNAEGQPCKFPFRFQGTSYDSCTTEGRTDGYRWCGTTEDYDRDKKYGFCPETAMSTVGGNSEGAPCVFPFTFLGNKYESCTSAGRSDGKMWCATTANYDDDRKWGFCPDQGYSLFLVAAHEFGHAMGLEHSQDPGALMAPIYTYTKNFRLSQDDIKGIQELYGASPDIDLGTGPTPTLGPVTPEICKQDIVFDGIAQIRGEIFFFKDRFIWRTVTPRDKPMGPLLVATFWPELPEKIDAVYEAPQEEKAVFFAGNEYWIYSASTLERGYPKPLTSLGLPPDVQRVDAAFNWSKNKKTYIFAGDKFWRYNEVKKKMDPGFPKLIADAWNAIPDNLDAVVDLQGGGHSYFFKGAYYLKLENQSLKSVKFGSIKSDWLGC

[2] = molecular target: T2, purified recombinant human Aggrecanase-1 (rAgg1) (Homo sapiens, UniProt O75173); assay: In vitro fluorescence screen for Aggrecanase-1 inhibitors; type: biochemical; details: Table 3; for IC50: read-out: Agg1 IC50; for Ki: read-out: Ki Agg1
T2 sequence (O75173 213-837): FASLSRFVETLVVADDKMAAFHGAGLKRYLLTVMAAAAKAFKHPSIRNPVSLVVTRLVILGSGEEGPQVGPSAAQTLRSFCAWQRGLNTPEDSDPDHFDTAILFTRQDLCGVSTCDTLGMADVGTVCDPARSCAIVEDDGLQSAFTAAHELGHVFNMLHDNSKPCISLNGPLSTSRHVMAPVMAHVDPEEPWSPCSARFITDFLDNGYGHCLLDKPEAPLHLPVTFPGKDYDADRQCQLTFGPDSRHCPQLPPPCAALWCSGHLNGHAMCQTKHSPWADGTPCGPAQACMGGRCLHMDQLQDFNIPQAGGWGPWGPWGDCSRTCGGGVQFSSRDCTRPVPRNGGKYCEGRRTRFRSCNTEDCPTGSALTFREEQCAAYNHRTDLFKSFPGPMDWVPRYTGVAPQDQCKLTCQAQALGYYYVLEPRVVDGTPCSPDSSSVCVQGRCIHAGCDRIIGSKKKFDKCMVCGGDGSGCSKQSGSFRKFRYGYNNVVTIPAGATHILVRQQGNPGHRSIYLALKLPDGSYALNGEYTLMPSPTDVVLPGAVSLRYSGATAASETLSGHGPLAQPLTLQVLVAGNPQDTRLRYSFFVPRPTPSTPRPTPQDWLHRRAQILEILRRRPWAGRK

MMP-8 = MMP-8 (Homo sapiens, UniProt P22894); assay: MMP-8 of Table 3; type: biochemical; details: unit inferred
MMP-12 = MMP-12 (Homo sapiens, UniProt P39900); assay: MMP-12 of Table 3; type: biochemical; details: unit inferred
[3] = molecular target: T3, purified recombinant human Aggrecanase-2 (Ag2t-Phe628-Strep) (Homo sapiens, UniProt Q9UNA0); assay: In vitro fluorescence screen for Aggrecanase-2 inhibitors; type: biochemical; details: Table 3; for IC50: read-out: Agg 2 IC50; for Ki: read-out: Ki Agg2
T3 construct: the form used is denoted as Ag2t-Phe628-Strep (MW=41,737)
T3 sequence (Q9UNA0 262-628): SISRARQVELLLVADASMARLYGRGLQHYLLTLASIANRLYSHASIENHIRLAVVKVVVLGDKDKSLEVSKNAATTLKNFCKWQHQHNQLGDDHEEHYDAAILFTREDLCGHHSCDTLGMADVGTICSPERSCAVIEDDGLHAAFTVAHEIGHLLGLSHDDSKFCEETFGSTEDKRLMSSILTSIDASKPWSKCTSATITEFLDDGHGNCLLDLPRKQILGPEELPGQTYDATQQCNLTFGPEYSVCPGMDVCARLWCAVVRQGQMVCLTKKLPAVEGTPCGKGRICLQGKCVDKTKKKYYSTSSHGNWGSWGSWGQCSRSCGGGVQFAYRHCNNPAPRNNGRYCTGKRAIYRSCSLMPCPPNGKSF

[4] = Homo sapiens, read-out: % inhibition (BC3 analysis)

Chain of MMP-8 (P22894 101-467, species assumed): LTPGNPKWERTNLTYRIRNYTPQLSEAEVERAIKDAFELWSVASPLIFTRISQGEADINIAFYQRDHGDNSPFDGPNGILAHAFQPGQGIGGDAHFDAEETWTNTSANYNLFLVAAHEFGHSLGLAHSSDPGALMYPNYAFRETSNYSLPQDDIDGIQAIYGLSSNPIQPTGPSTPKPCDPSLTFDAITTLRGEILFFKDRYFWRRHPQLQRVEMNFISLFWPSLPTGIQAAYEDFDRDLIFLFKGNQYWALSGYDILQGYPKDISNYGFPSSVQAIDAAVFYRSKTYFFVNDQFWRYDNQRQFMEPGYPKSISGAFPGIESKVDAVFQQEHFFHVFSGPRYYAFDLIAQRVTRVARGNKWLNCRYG
Chain of MMP-12 (P39900 106-470): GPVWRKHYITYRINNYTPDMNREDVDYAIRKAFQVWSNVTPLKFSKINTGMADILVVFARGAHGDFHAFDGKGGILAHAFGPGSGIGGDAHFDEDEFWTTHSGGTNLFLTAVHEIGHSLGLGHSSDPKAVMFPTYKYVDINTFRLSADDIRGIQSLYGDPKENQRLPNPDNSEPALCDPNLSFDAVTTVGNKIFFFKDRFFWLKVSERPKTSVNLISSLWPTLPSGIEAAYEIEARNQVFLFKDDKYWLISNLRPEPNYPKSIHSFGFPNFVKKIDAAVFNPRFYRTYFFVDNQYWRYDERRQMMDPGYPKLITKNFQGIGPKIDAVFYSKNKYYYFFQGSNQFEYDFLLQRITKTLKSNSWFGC

- IC50 (recombinant human MMP-2): 2150 nM
- IC50 [2]: < 30 nM
- Ki [2]: < 3 nM
- IC50 (MMP-8): 1210 nM
- IC50 (MMP-12): 680 nM
- IC50 [3]: < 30 nM
- Ki [3]: 37 nM
Structure (SMILES): CC(C)(Cc1ccc(F)cc1)NC(=O)[C@H](CCC(=O)O)NC(=O)c1ccc(-c2cccs2)cc1 [Example 8NNNNNNN, N-[2-(4-fluorophenyl)-1,1-dimethylethyl]-N^2-[4-(2-thienyl)benzoyl]-L-α-glutamine]
- EC50 ([1]; human OA cartilage explants, 6 days, BC3 analysis): < 0.04 µg/mL
- inhibition at 0.04 µg/mL ([1]; Homo sapiens, 0.04 ug/ml, average of 4 donors, read-out: % inhibition (BC3 analysis)): 70.2%
- inhibition at 0.08 µg/mL ([1]; Homo sapiens, 0.08 ug/ml, average of 4 donors, read-out: % inhibition (BC3 analysis)): 84.5%
- inhibition at 0.15 µg/mL ([1]; Homo sapiens, 0.15 ug/ml, average of 4 donors, read-out: % inhibition (BC3 analysis)): 66.7%
- inhibition at 0.3 µg/mL ([1]; Homo sapiens, 0.3 ug/ml, average of 4 donors, read-out: % inhibition (BC3 analysis)): 73.1%
- inhibition at 0.6 µg/mL ([1]; Homo sapiens, 0.6 ug/ml, average of 4 donors, read-out: % inhibition (BC3 analysis)): 98.9%
- inhibition at 1.25 µg/mL ([1]; Homo sapiens, 1.25 ug/ml, average of 4 donors, read-out: % inhibition (BC3 analysis)): 99.4%
- inhibition at 2.5 µg/mL ([1]; Homo sapiens, 2.5 ug/ml, average of 4 donors): 98.7%
- inhibition at 5 µg/mL ([1]; Homo sapiens, 5 ug/ml, average of 4 donors): 100%
- inhibition at 10 µg/mL ([1]; Homo sapiens, 10 ug/ml, average of 4 donors): 101%

Structure (SMILES): CC(C)(Cc1ccc(F)cc1)NC(=O)[C@H](CCC(=O)O)NC(=O)c1ccc(-c2ccc(Cl)s2)cc1 [Example 8WWWWWWW, N^2-[4-(5-chloro-2-thienyl)benzoyl]-N-[2-(4-fluorophenyl)-1,1-dimethylethyl]-L-α-glutamine]
- EC50 ([1]; Homo sapiens): 0.04 to 0.16 µg/mL (≈ 0.0774 to 0.309 µM)
- inhibition at 0.01 µg/mL [1, 4]: 2.85%
- inhibition at 0.02 µg/mL [1, 4]: 46.4%
- inhibition at 0.04 µg/mL [1, 4]: 23.5%
- inhibition at 0.08 µg/mL [1, 4]: 76.9%
- inhibition at 0.15 µg/mL [1, 4]: 88.5%
- inhibition at 0.3 µg/mL [1, 4]: 95%
- inhibition at 0.6 µg/mL [1, 4]: 98%
- inhibition at 1.25 µg/mL [1, 4]: 100%
- IC50 (recombinant human MMP-2): 1080 nM
- IC50 [2]: < 30 nM
- Ki [2]: < 3 nM
- IC50 (MMP-8): 370 nM
- IC50 (MMP-12): 630 nM
- IC50 [3]: 50 nM
- Ki [3]: 42 nM

Source: patent US7998965B2, “Glutamate aggrecanase inhibitors” (Wyeth LLC, priority 2005, dated 2011)
